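Grown in 96-well plates, cells were treated for 48 hours with each compound at five concentrations. Insufficient inhibition: endpoint recorded as highest concentration tested. GI50 is the concentration that inhibits growth by half.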 Active and inactive are the calls of the source. Rule as the data show it: active = GI50 up to about 1.1 µM and inactive = higher.

Test systems include A498; A549; ACHN; BT-549; HCT-15; HOP-62; KM12; LOX IMVI; MDA-MB-435; Malme-3M; NCI-H23; NCI-H460; OVCAR-5; RXF 393; SK-OV-3; SNB-75; SR; TK-10; UACC-257; UACC-62.
Common to all, as to test: NCI-60 cell line screen, 48 h

Turning to `COc1cccc2c1Cc1cc(-c3ccccc3)[n+](C)n1-2`, the GI50 was 31.5 µM (inactive) with A498; 27.9 µM (inactive) with A549; 19.2 µM (inactive) in the assay on ACHN; 22.5 µM (inactive) in the assay on BT-549; 31.3 µM with HCT-15; 42.3 µM (inactive) in the assay on HOP-62. Besides, the GI50 is 11.5 µM (inactive) with KM12; 10 µM (inactive) in the assay on LOX IMVI; 11.8 µM (inactive) with MDA-MB-435; 10.3 µM (inactive) with Malme-3M; 9.77 µM (inactive) in the assay with NCI-H23; 14.5 µM (inactive) in the assay on NCI-H460. For the same molecule, the GI50 is 23.9 µM (inactive) in the assay on OVCAR-5; 19 µM (inactive) with RXF 393; 33.2 µM (inactive) in the assay on SK-OV-3; 20 µM (inactive) in the assay on SNB-75; 7.57 µM (inactive) in the assay on SR; 28.8 µM (inactive) in the assay on TK-10. For the same molecule, the GI50 with UACC-257 is 3.58 µM (inactive); in the assay on UACC-62 it was 15 µM (inactive).

These data come from ChEMBL document CHEMBL1201862, “PubChem BioAssay data set” (2004).
